Reference: patent US6514997B2, “Antipicornaviral compounds and compositions, their pharmaceutical uses, and materials for their synthesis” (Agouron Pharmaceuticals, Inc., priority 1999, dated 2003)

How the values were obtained:
[1] = Cytotoxicity (CC50) in mock-infected H1-HeLa cells, XTT dye reduction; format: cell-based, human; conditions: human, H1-HeLa cells; for CC50: line of CVB2; for CC50 at 1 day: line of CVB3
Summary of the method: (§1)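 H1-HeLa cells mock-infected, read by XTT/PMS formazan at 450/650 nm.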

H1-HeLa cells = assay: as above; format: cell-based, human
Summary of the method: as §1

[2] = tested on: Coxsackievirus type A-21 (CAV-21); assay: Anticoxsackieviral cell culture assay (XTT, EC50), CAV-21; format: cell-based, coxsackievirus A-21 in H1-HeLa cells; conditions: Coxsackievirus
Summary of the method: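 H1-HeLa cells infected with CAV-21 (m.o.i. 0.025) or CVB3 (m.o.i. 0.075), plated at 4×10^4 cells/well with test compound. Cell protection read by XTT/PMS formazan at 450/650 nm after 1 day (CVB3) or 2 days (CAV-21). TI = CC50/EC50.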

[3] = Cytotoxicity (CC50) in uninfected MRC-5 cells, XTT dye reduction; format: cell-based, human; conditions: human, MRC-5 cells, uninfected (mock-infected)
Protocol: Echovirus type 11 (ECHO 11) was purchased from ATCC (Rockville, Md.). Virus stocks were propagated and antiviral assays were performed in MRC-5 cells (ATCC). Cells were grown in minimal essential medium with 10% fetal bovine serum (Life Technologies, Gaithersburg, Md.). The ability of the compounds of this invention to protect cells against ECHO 11 infection was measured by the XTT dye reduction method (Weislow et al., J. Natl. Cancer Inst. (1989), vol. 81, 577-586). MRC-5 cells were infected with ECHO 11 at an m.o.i. of 0.003 or 0.004, respectively, or mock-infected with medium only. Infected or uninfected cells were added at 1×10^4 cells per well and incubated with appropriate concentrations of compound. Four days later, XTT/PMS was added to test plates, and the amount of formazan produced was quantified spectrophotometrically at 450/650 nm. […] The therapeutic index (TI) was calculated by dividing the CC50 by the EC50. Activity of the compounds against enterovirus type 70 (EV 70) may be measured by the same assay as described above in this section. Enterovirus type 70 (EV 70) may be obtained from the American Type Culture Collection ATCC (Rockville, Md.).

coxsackievirus B2 (CVB2) = assay: Anticoxsackieviral cell culture assay (EC50), CVB2; format: cell-based; conditions: Enterovirus B
coxsackievirus B5 (CVB5) = assay: Anticoxsackieviral cell culture assay (EC50), CVB5; format: cell-based; conditions: Enterovirus B
echovirus 9 (ECHO-9) = assay: Anti-echoviral cell culture assay (EC50), ECHO-9; format: cell-based; conditions: Enterovirus B
[4] = uninfected (mock-infected), line of CAV-21

| SMILES | CC50 at 2 days ([1]; mock-infected, line of HRV-14) [µM] | CC50 at 2 days [1, 4] [µM] | CC50 ([1]; uninfected (mock-infected)) [µM] | CC50 at 1 day ([1]; uninfected (mock-infected)) [µM] | CC50 (H1-HeLa cells; line of CVB5) [µM] | CC50 (H1-HeLa cells; line of HRV-2) [µM] | CC50 (H1-HeLa cells; line of HRV-3) [µM] | CC50 (H1-HeLa cells; line of HRV-9) [µM] | CC50 (H1-HeLa cells; line of HRV-11) [µM] | CC50 (H1-HeLa cells; line of HRV-13) [µM] | CC50 (H1-HeLa cells; line of HRV-16) [µM] | CC50 (H1-HeLa cells; line of HRV-19) [µM] | CC50 (H1-HeLa cells; line of HRV-23) [µM] | CC50 (H1-HeLa cells; line of HRV-25) [µM] | CC50 (H1-HeLa cells; line of HRV-39) [µM] | CC50 (H1-HeLa cells; line of HRV-78) [µM] | EC50 [2] [µM] | EC50 (coxsackievirus B2 (CVB2)) [µM] | EC50 (coxsackievirus B5 (CVB5)) [µM] | EC50 (echovirus 9 (ECHO-9)) [µM] | further results |
| --- | --- | --- | --- | --- | --- | --- | --- | --- | --- | --- | --- | --- | --- | --- | --- | --- | --- | --- | --- | --- | --- |
| CCOC(=O)/C=C/[C@H](C[C@@H]1CCNC1=O)NC(=O)[C@H](CC)n1cccc(NC(=O)c2cc(C)on2)c1=O [Compound 26, trans-(2′S,3″″S,4S)-4-(2′-{3″-[(5′″-Methylisoxazole-3′″-carbonyl)amino]-2″-oxo-2″H-pyridin-1″-yl}butyrylamino)-5-(2″″-oxopyrrolidin-3″″-yl)pent-2-enoic Acid Ethyl Ester] | > 10 | > 10 | > 10 | > 10 | > 10 | > 10 | > 10 | > 10 | > 10 | > 10 | > 10 | > 10 | > 10 | > 10 | > 10 | > 10 | 0.121 | 0.055 | 0.018 | 0.015 | CC50 (H1-HeLa cells; line of HRV-1A): > 10 µM; CC50 (H1-HeLa cells; line of HRV-10): > 10 µM; CC50 (H1-HeLa cells; line of HRV-87): > 10 µM; CC50 (H1-HeLa cells; line of HRV-Hanks): > 10 µM; CC50 at 4 days ([3]; line of ECHO-11): > 10 µM |
| C#CC[C@@H](C(=O)N[C@H](/C=C/C(=O)OCC)C[C@@H]1CCNC1=O)n1cccc(NC(=O)c2cc(C)on2)c1=O [Compound 31, trans-(2′S,3″″S,4S)-4-(2′-{3″-[(5′″-Methyl-isoxazole-3′″-carbonyl)amino]-2″-oxo-2″H-pyridin-1″-yl}pent-4′-ynoyl-amino)-5-(2″″-oxopyrrolidin-3″″-yl)pent-2-enoic Acid Ethyl Ester] | > 10 | > 10 | > 10 | > 10 | > 10 | > 10 | > 10 | > 10 | > 10 | > 10 | > 10 | > 10 | > 10 | > 10 | > 10 | > 10 | 0.161 | 0.057 | 0.047 | 0.012 | CC50 (H1-HeLa cells; line of HRV-1A): > 10 µM; CC50 (H1-HeLa cells; line of HRV-10): > 10 µM; CC50 (H1-HeLa cells; line of HRV-87): > 10 µM; CC50 (H1-HeLa cells; line of HRV-Hanks): > 10 µM; CC50 at 4 days ([3]; line of ECHO-6): > 10 µM |
| CCOC(=O)/C=C/[C@H](C[C@@H]1CCNC1=O)NC(=O)[C@H](Cc1ccc(F)c(F)c1)n1cccc(NC(=O)c2cc(C)on2)c1=O [Compound 33, trans-(2′S,3′″″S,4S)-4-(3′-(3″,4″-Difluorophenyl)-2′-{3′″-[(5″″-methylisoxazole-3″″-carbonyl)amino]-2′″-oxo-2′″H-pyridin-1′″-yl}propionylamino)-5-(2′″″-oxopyrrolidin-3′″″-yl)pent-2-enoic Acid Ethyl Ester] | > 10 | > 10 | > 10 | > 10 | > 10 | > 10 | > 10 | > 10 | > 10 | > 10 | > 10 | > 10 | > 10 | > 10 | > 10 | > 10 | 0.004 | 0.015 | 0.025 | 0.003 | CC50 (H1-HeLa cells; line of HRV-87): > 10 µM; CC50 (H1-HeLa cells; line of HRV-Hanks): > 10 µM; CC50 at 4 days ([3]; line of ECHO-11): > 10 µM |
| C#CC[C@@H](C(=O)N[C@H](/C=C/C(=O)OC(C)(C)C)C[C@@H]1CCNC1=O)n1cccc(NC(=O)c2cc(C)on2)c1=O [Compound 41, trans-(2′S,3′″″S,4S)-4-[2′-(3″-{[1′″-(5″″-Methylisoxazol-3″″-yl)methanoyl]amino}-2′″-oxo-2′″H-pyridin-1′″-yl)pent-4″-ynoylamino]-5-(2′″″-oxopyrrolidin-3′″″-yl)pent-2-enoic Acid tert-Butyl Ester] | > 10 | > 10 | > 10 | > 10 | > 10 | > 10 | > 10 | > 10 | – | – | > 10 | – | – | > 10 | > 10 | – | 0.593 | 0.213 | 0.199 | 0.106 | CC50 (H1-HeLa cells; line of HRV-87): > 10 µM; CC50 at 4 days ([3]; line of ECHO-11): > 10 µM |
| Cc1cc(C(=O)Nc2cccn([C@@H](Cc3ccc(F)c(F)c3)C(=O)N[C@H](/C=C/C(=O)OC(C)C)C[C@@H]3CCNC3=O)c2=O)no1 [Compound 48, trans-(2′S,3″″″S,4S)-4-[3′-(3″,4″-Difluorophenyl)-2′-(3′″-{[1″″-(5′″″-methylisoxazol-3′″″-yl)methanoyl]amino}-2″″-oxo-2″″H-pyridin-1″″-yl)propanoylamino]-5-(2″″″-oxopyrrolidin-3″″″-yl)pent-2-enoic Acid Isopropyl Ester] | > 10 | > 10 | > 10 | > 10 | > 10 | > 10 | > 10 | > 10 | > 10 | > 10 | > 10 | > 10 | > 10 | > 10 | > 10 | > 10 | 1.12 | 0.162 | 0.178 | 0.057 | CC50 (H1-HeLa cells; line of HRV-1A): > 10 µM; CC50 (H1-HeLa cells; line of HRV-10): > 10 µM; CC50 (H1-HeLa cells; line of HRV-Hanks): > 10 µM; CC50 at 4 days ([3]; line of ECHO-9): > 10 µM |
| C#CC[C@@H](C(=O)N[C@H](/C=C/C(=O)OC1CCC1)C[C@@H]1CCNC1=O)n1cccc(NC(=O)c2cc(C)on2)c1=O [Compound 53, trans-(2′S,3′″″S,4S)-4-[2′-(3″-{[1′″-(5″″-Methylisoxazol-3″″-yl)methanoyl]amino}-2′″-oxo-2′″H-pyridin-1′″-yl)pent-4″-ynoylamino]-5-(2′″″-oxopyrrolidin-3′″″-yl)pent-2-enoic Acid Cyclobutyl Ester] | > 10 | > 10 | > 10 | > 10 | > 10 | > 10 | > 10 | > 10 | > 10 | > 10 | > 10 | > 10 | > 10 | > 10 | > 10 | > 10 | 0.476 | 0.154 | 0.157 | 0.026 | CC50 (H1-HeLa cells; line of HRV-1A): > 10 µM; CC50 (H1-HeLa cells; line of HRV-10): > 10 µM; CC50 (H1-HeLa cells; line of HRV-Hanks): > 10 µM; CC50 at 4 days ([3]; line of ECHO-9): > 10 µM |
